Data on eight molecules can be found in patent publication US20060281680A1, “Methods and compositions for modulating vascular integrity” (GENENTECH, INC., priority 2005, published 2006).

Where a chain is given by its changes, count along the chain named. Names may count otherwise.

Common to all, as to assay type: cell-based, human
In data set [1] the test system is DSCR1. As to the kind of experiment: DSCR1 expression analysis by real-time RT-PCR (TaqMan) in HUVECs. The following applies: for DSCR1 mRNA levels: HUVECs, after 5.5 hours; for DSCR1 expression levels (real-time RT-PCR): serum-starved HUVECs, over 36 hours. An excerpt:
(§1) Cells and cell assays. Primary human endothelial cells were purchased from Clonetics (Santa Rosa, Calif.) and cultured according to the manufacturer's instructions. For gene calling experiments, human umbilical vein endothelial cells (HUVECs) were purchased from Clonetics (BioWhittaker, Walkersville, Md.) and maintained in endothelial growth medium (EBM-2) complemented with 5% fetal calf serum (FCS) following the manufacturer's instructions. Cells (1×107) were split at a cell density of 19 000 cell/cm2 and triplicate experiments for each condition were run in parallel. Twenty-four hours after plating the cells, cell were washed 3 times with phosphate-buffered saline (PBS) and media (Clonetics) containing either 0.1% bovine serum albumin (BSA) or 0.1% BSA plus VEGF (30 ng/mL) or 5% FCS. RNA isolation and reverse transcription-PCR (RT-PCR) analysis was performed as described.^21 For cell culture experiments, the following conditions were used: human (h) VEGF, 30 ng/mL; hTNF-α, 10 ng/mL; PMA, 200 ng/mL (Calbiochem, LaJolla, Calif.); CsA, 1 μM (Calbiochem); IO 5 μM (Sigma, St Louis, Mo.); thapsigargin, 50 nM (Sigma). In one instance inhibiting (si) RNAs were generated by Dharmacon (Lafayette, Colo.) based on the full-length cDNAs of the respective gene and using the “Smart-pool” service (Dharmacon, Lafayette, Colo.). For adenoviral transduction survival experiments, human umbilical vein endothelial cells (HUVECs) were maintained in endothelial growth medium (EBM-2) complemented with 5% FCS following the manufacturer's instructions. 3×10^5 cells were split per well of a 6 well plate (Primaria, BD Biosciences, Bedford, Mass.) and duplicate experiments for each condition were run in parallel. Cells were infected with adenovirus (MOI=100) encoding for a gD peptide (Ad-Control), DSCR1 (Ad-DSCR1) or an antisense construct with the coding sequence inverted (Ad-DSCR1-AS) for 2 h in serum free media containing 10 mM […] and 10 nM MgCl2 on a vertical shaker at room temperature. Thereafter, 5 times the volume of regular growth medium containing 5% FCS was added and cells were kept for 1 day in a CO2 incubator. Thereafter, cells were washed three times with PBS and basal media (Clonetics, Santa Rosa, Calif.) containing 0.1 % BSA was added and PMA/IO, H202, and ZVAD as indicated. 24 hours after serum starvation and dosing, cell were counted on a Coulter brand style cell counter. For cell culture experiments, the following conditions were used: PMA: 200 ng/ml (Calbiochem, LaJolla, Calif.), Ionomycine: 5 μM (Sigma, St. Louis, Mo.), a 3% H202 solution was diluted 1:300 in basal media, 0.1% BSA to result in a 0.01% H202 solution, ZVAD 5 μM.
For orientation: In qPCR the cycle at which signal appears reflects the starting amount.

Data set [2] deals with DSCR1. As to the kind of experiment: Western blot of DSCR1 protein in whole cell extracts of HUVECs. The following applies: 6 hours of stimulation. The method, then:
(§2) Cells cultured in 10-cm dishes were washed twice in Tris (tris(hydroxymethyl)aminomethane)-buffered saline, and 0.6 mL RIPA buffer (10 mM PBS, 1% Nonidet P-40, 0.5% sodium deoxycholate, 0.1% sodium dodecyl sulfate [SDS], […] phenylmethylsulfonyl fluoride, 30 μg/mL aprotinin, 1 mM sodium orthovanadate), and protease inhibitors (Roche Pharmaceuticals, Gaithersburg, Md.) were added. Mouse monoclonal antibody (mAb) directed against human NFATc 1, c2, and c3 was purchased from Santa Cruz Biotechnology (Santa Cruz, Calif.). Affinity-purified goat polyclonal antibody against human E-selectin, vascular cell adhesion molecule-1 (VCAM-1), intercellular adhesion molecule-1 (ICAM-1), and Cox-2 was from BD Pharmingen. Total endothelial cell extract, polyacrylamide gel electrophoresis (PAGE), blotting, and immunodetection were performed according to the Santa Cruz Biotechnology protocol. A total of […] whole-cell extract was loaded on each lane of a 4% to 16% polyacrylamide gel. The enhanced chemiluminescence (ECL) reaction kit was purchased from Amersham Pharmacia Biotech (Piscataway, N.J.), and horseradish peroxidase streptavidin from Vector Laboratories (Burlingame, Calif.) was used. For NFATc1 experiments, equal amounts of cell extract were loaded to visualize NFATc1 (mAb 7A6; 1:500; Santa Cruz Biotechnology) and the loading control α-tubulin (mAb from ICN, Santa Ana, Calif.; 1:5000). For Cox-2 and TF immunoblot analysis equal amounts of cell lysate were loaded on a 6% to 12% gradient SDS-PAGE. Cox-2 was analyzed with an anti-Cox2 mAb (RDI, 1:500) and TF with an anti-hTF mAb (clone 7G11) was generated at Genentech, and used at a 1:500 dilution. Before loading the samples on the gel, the protein amounts were quantified and adjusted accordingly. As loading control, an anti-γ-adaptin mAb was used (1:1000) on a 4% to 20% polyacrylamide gel.
DSCR1 was PCR amplified with primers DSCR1-EcoRI-Pro 5′, adding an extra proline and DSCR1-Stop-XhoI 3′, by using DSCR1 cDNA as a template and cloned into pGEX-KG. GST-DSCR1 was expressed and purified essentially as described previously.^23 Polyclonal rabbit anti-GST-DSCR1 was prepared by immunization with recombinant GST-DSCR1. Filtered crude serum was used for Western blots (1:400).
(A western blot detects proteins with antibodies after separation by electrophoresis.)

The subject of another data set is Cox-2, E-selectin, TF. As to the kind of experiment: Real-time RT-PCR of inflammatory marker / VEGF target genes in HUVECs. The following applies: activated endothelial cells, 4 hours of incubation.
Excerpt: as §1

For data set [3], the system named is TF, VCAM-1, E-selectin, ICAM-1. As to the kind of experiment: FACS analysis of inflammatory markers on GFP+ siRNA-transfected HUVECs. How it is done:
For transient transfection experiments including siRNA, HUVECs were plated in 6-well plates as described for transient transfection experiments. For 6 replicas, 600 pmol siRNA (Dharmacon, Lafayette, Colo.), 7.5 μg luciferase, and 4 μg Renilla reporter construct were mixed in 6 mL high-glucose DMEM. For FACS and immunohistochemical (IHC) experiments, 11.5 μg enhanced green fluorescent protein (EGFP) plasmid was added instead of the luciferase plasmid. Prior to incubation at 37° C. for 25 to 30 minutes, 30 μL Targefect solution A and 60 μL Targefect solution B (Targeting Systems) were added to the mixture; 1 mL of this solution was used for lipofection as described. Cells were washed twice with PBS prior to addition of serum-free medium and dosing for the indicated amount of time.
In general terms: In flow cytometry, cells or beads pass a laser one at a time.

Data set [4] relates to DSCR1. As to the kind of experiment: Western blot of DSCR1 after siRNA transfection of HUVECs. How it is done: as §2, with “The enhanced chemiluminescence (ECL) reaction kit was purchased from Amersham Pharmacia Biotech (Piscataway, N.J.), and horseradish peroxidase streptavidin from Vector Laboratories (Burlingame, Calif.) was used. For NFATc1 experiments, equal amounts of cell extract were loaded to visualize NFATc1 (mAb 7A6; 1:500; Santa Cruz Biotechnology) and the loading control α-tubulin (mAb from ICN, Santa Ana, Calif.; 1:5000). For Cox-2 and TF immunoblot analysis equal amounts of cell lysate were loaded on a 6% to 12% gradient SDS-PAGE.” left out, “As loading control, an anti-γ-adaptin mAb was used (1:1000) on a 4% to 20% polyacrylamide gel.” left out

A further data set concerns NFAT. The data set can be described thus: NFAT luciferase reporter gene assay in endothelial cells. The method, then:
For HUVEC and human microvascular endothelial cell (HMVECs) transient transfections, cells (7.5×104) were plated per well of a 6-well dish in 3 mL growth medium (Primaria; BD Biosciences, Bedford, Mass.). The amounts of plasmid DNA used in the lipofection mixture were calculated for transfection of the total of 3 wells. Then, 1.25 μg expression vector, 3.75 μg luciferase reporter, and 2.0 μg SV-Renilla reference reporters were mixed and 14 μL F1 lipofectin reagent (Targeting Systems, Santee, Calif.) was added. Then, 4.5 mL high-glucose Dulbecco modified Eagle medium (DMEM) was added to the mixture. Transient transfection was conducted as recommended by the manufacturer. For reporter gene expression experiments, cells were lysed by using the Dual Luciferase Reporter Kit (Promega, San Luis Obispo, Calif.) in 300 μL of 1×passive lysis buffer following the recommendations of the manufacturer.
For transient transfection experiments including siRNA, HUVECs were plated in 6-well plates as described for transient transfection experiments. For 6 replicas, 600 pmol siRNA (Dharmacon, Lafayette, Colo.), 7.5 μg luciferase, and 4 μg Renilla reporter construct were mixed in 6 mL high-glucose DMEM. For FACS and immunohistochemical (IHC) experiments, 11.5 μg enhanced green fluorescent protein (EGFP) plasmid was added instead of the luciferase plasmid. […]

Data set [5] relates to DSCR1. As to the kind of experiment: DSCR1 expression by real-time RT-PCR in HPAECs, HMVECs and HUAECs. The following applies: HMVECs, HUAECs. An excerpt: Cells and cell assays. Primary human endothelial cells were purchased from Clonetics (Santa Rosa, Calif.) and cultured according to the manufacturer's instructions. For gene calling experiments, human umbilical vein endothelial cells (HUVECs) were purchased from Clonetics (BioWhittaker, Walkersville, Md.) and maintained in endothelial growth medium (EBM-2) complemented with 5% fetal calf serum (FCS) following the manufacturer's instructions. Cells (1×107) were split at a cell density of 19 000 cell/cm2 and triplicate experiments for each condition were run in parallel. Twenty-four hours after plating the cells, cell were washed 3 times with phosphate-buffered saline (PBS) and media (Clonetics) containing either 0.1% bovine serum albumin (BSA) or 0.1% BSA plus VEGF (30 ng/mL) or 5% FCS. RNA isolation and reverse transcription-PCR (RT-PCR) analysis was performed as described.^21 For cell culture experiments, the following conditions were used: human (h) VEGF, 30 ng/mL; hTNF-α, 10 ng/mL; PMA, 200 ng/mL (Calbiochem, LaJolla, Calif.); CsA, 1 μM (Calbiochem); IO 5 μM (Sigma, St Louis, Mo.); thapsigargin, 50 nM (Sigma). […] 24 hours after serum starvation and dosing, cell were counted on a Coulter brand style cell counter. […]

The mark [6] stands for this setting: GFP+ activated endothelial cells.

Consider TNF-α, for which the “DSCR1 mRNA levels” value with DSCR1 [1] is on record as “significantly increased”. Further, the DSCR1 protein levels entry in the data set with DSCR1 [2] was “unable to detect increased DSCR1 protein levels”.
In the case of “b-FGF: basic fibroblast growth factor, R&D Systems”, in the data set on DSCR1 [1], the “DSCR1 expression levels (real-time RT-PCR)” value (“DSCR1 expression levels” below) is recorded as “did not alter DSCR1 levels significantly”. For the same molecule, the DSCR1 protein levels entry in the data set with DSCR1 [2] is “no significant increase”.
Consider `C/C=C(/C)C(=O)O[C@H]1C(C)=C2[C@H]([C@@H]1OC(=O)CCCCCCC)[C@@](C)(OC(C)=O)C[C@H](OC(=O)CCC)[C@@]1(O)[C@H]2OC(=O)[C@@]1(C)O` [thapsigargin, reference compound], for which the “induction of COX2, E-selectin and TF mRNA” value in the data set with Cox-2, E-selectin, TF is recorded as “significant induction”. Further, the “DSCR1 mRNA levels” value with DSCR1 [1] was “significantly increased”. Further, the DSCR1 protein levels entry in the data set with DSCR1 [2] was “induction of DSCR1”.
On to ionomycine [reference compound], for which the “DSCR1 mRNA levels” value in the data set on DSCR1 [1] was “significantly increased”.
Turning to “siDSCR1: siRNA to DSCR1 (NM_004414): pool of four in VEGF studies, AACGUAUGACAAGGACAUCAC in PMA/IO studies (one strand only stated, further chemistry not given here)”, in data set [3] (setting [6]), the ICAM-1 expression entry was “not significantly affected”; the “expression levels of TF, E-selectin and VCAM-1” value is listed as “increase”. For the same molecule, the “magnitude of induction of inflammatory gene expression in VEGF-stimulated versus PMA/IO-stimulated cells” value in data set [3] (GFP+ endothelial cells) was “clearly below”. Moreover, the “DSCR1 protein expression from cotransfected PRKN-DSCR1-FLAG” value in the data set on DSCR1 [4] (anti-Flag Western blot) was “complete absence”. For the same molecule, the “reduction in endogenous DSCR1 levels” value in the data set on DSCR1 [4] (rabbit polyclonal antiserum Western blot) is 50% to 70%. Further, the “increase in NFAT activity relative to siControl” value in the data set with NFAT (HUVECs in presence of IO/PMA) is listed as 2 fold. In the data set with NFAT (HUVECs in presence of VEGF), the “increase in NFAT activity relative to siControl” value was 3 fold.

B1: VEGFR2-sel: KDR-selective VEGF mutant: VEGF D63S/G65M/L66R (protein)
chain: APMAEGGGQNHHEVVKFMDVYQRSYCHPIETLVDIFQEYPDEIEYIFKPSCVPLMRCGGCCNSEMRECVPTEESNITMQIMRIKPHQGQHIGEMSFLQHNKCECRPKKDRARQENPCGPCSERRKHLFVQDPQTCKCSCKNTDSRCKARQLELNERTCRCDKPRR
As for B1, the “DSCR1 expression levels” value with DSCR1 [1] is recorded as “equally potent to VEGF”. The “DSCR1 expression (real-time RT-PCR)” value in the data set with DSCR1 [5] was “increased levels of DSCR1 expression”.

B2: VEGFR1-sel: Flt-selective VEGF mutant I43A/I46A/Q79A/I83 (protein)
chain: B1 chain with I43A, I46A, S63D, M65G, R66L, Q79A
In the case of B2, the “DSCR1 expression levels” value with DSCR1 [1] was “failed to induce alterations in DSCR1 expression”.

B3: PlGF: VEGFR-1 selective ligand (protein, UniProt P49763 19-221, looked up)
Placenta growth factor: LPAVPPQQWALSAGNGSSEVEVVPFQEVWGRSYCRALERLVDVVSEYPSEVEHMFSPSCVSLLRCTGCCGDENLHCVPVETANVTMQLLKIRSGDRPSYVELTFSQHVRCECRHSPGRQSPDMPGDFRADAPSFLPPRRSLPMLFRMEWGCALTGSQSAVWPSSPVPEEIPRMHPGRNGKKQQRKPLREKMKPERCGDAVPRR
With B3, the “DSCR1 expression levels” value in the data set on DSCR1 [1] is “failed to induce alterations in DSCR1 expression”.
